Assay results as given in ChEMBL document CHEMBL1201862, “PubChem BioAssay data set” (2004).
Values joined by “and” are separate entries in the source; they are usually repeats but may differ in a detail not shown here. Equal entries are not always repeated.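 Each compound was tested at five concentrations against cells in 96-well plates for 48 hours. GI50 is the concentration that inhibits growth by half.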 Active and inactive are the calls of the source. Cut-off read from the data, not from the text of the source: active = GI50 up to about 1.1 µM and inactive = higher. Where a SMILES comes first, the peptide text is derived from it. [ ]: non-standard residue; d: D form. The star is where a group is joined. Iva = CC[C](C)(N)C(=O)O; Boc = CC(C)(C)OC(=O)*; X54 = C1CCC(=NO*)C1

Columns and labels:
Assay in all cases: DTP human tumour cell line panel, 48 h
UACC-62 = system: UACC-62
SNB-75 = system: SNB-75
HCT-116 = system: HCT-116
LOX IMVI = system: LOX IMVI
SF-539 = system: SF-539
ACHN = system: ACHN
SF-268 = system: SF-268
SW-620 = system: SW-620
OVCAR-4 = system: OVCAR-4
SK-MEL-5 = system: SK-MEL-5
HOP-92 = system: HOP-92
UO-31 = system: UO-31
A549 = system: A549
SF-295 = system: SF-295
UACC-257 = system: UACC-257
SK-MEL-28 = system: SK-MEL-28
SN12C = system: SN12C
NCI-H226 = system: NCI-H226
KM-20L2 = system: KM-20L2
DLD-1 = system: DLD-1

Measured: GI50

CC(Oc1ccc(Oc2cnc3ccc(Cl)cc3n2)cc1)C(=O)O (stereo not given)
inactive: UACC-62 > 100 µM and 81.1 µM | SNB-75 47.3 µM | HCT-116 88.7 µM | LOX IMVI 51.8 µM | SF-539 > 100 µM | ACHN 60.5 µM | SF-268 89.7 µM | SW-620 > 99.8 µM | OVCAR-4 > 100 µM | SK-MEL-5 > 62.8 µM and 72.8 µM | HOP-92 > 100 µM | UO-31 > 95.9 µM | A549 68.5 µM | SF-295 98.9 µM

COC(=O)/C=C\Sc1ccn(/C=C\C(=O)OC)c(=S)n1
inactive: SNB-75 22.9 µM | LOX IMVI 2.77 µM | SF-539 18.4 µM | ACHN 18.2 µM | SF-268 24.4 µM | SW-620 26 µM | OVCAR-4 16.9 µM | UACC-257 28.6 µM | SK-MEL-5 24.1 µM | SK-MEL-28 29.9 µM | HOP-92 18.5 µM | UO-31 25.1 µM | A549 22.1 µM | SN12C 23.6 µM

CCC(C)(NC(=O)C(C)NC(=O)OC(C)(C)C)C(=O)NC(C)C(=O)NC(C)(CC)C(=O)ON=C1CCCC1 (stereo not given) (Boc-A[Iva]A[Iva]-X54; configuration not given here)
inactive: UACC-62 > 100 µM | SNB-75 > 100 µM | HCT-116 > 100 µM | SK-MEL-5 > 100 µM | SK-MEL-28 > 100 µM | HOP-92 > 100 µM | UO-31 > 100 µM | SF-295 > 100 µM | SN12C > 100 µM | NCI-H226 > 100 µM

COc1ncnc2c(Cl)c(C(O)c3ccccc3)c(Cl)cc12 (stereo not given)
inactive: UACC-62 16.1 µM | SNB-75 22.4 µM | HCT-116 17.9 µM | LOX IMVI 53.3 µM | SF-539 20.6 µM | ACHN 26.4 µM | SF-268 21 µM | SW-620 25.6 µM | OVCAR-4 29.1 µM | UACC-257 > 100 µM | SK-MEL-5 26.2 µM | SK-MEL-28 34.6 µM | HOP-92 15.7 µM | UO-31 37.3 µM | A549 34.8 µM | SF-295 24.4 µM | SN12C 28.1 µM

OC(c1ccc(Br)cc1)(c1cccs1)C1CC1 (stereo not given)
inactive: UACC-62 16.4 µM | SNB-75 25.8 µM | HCT-116 16.3 µM | LOX IMVI 21.1 µM | SF-539 21.4 µM | ACHN 27 µM | SF-268 20.7 µM | SW-620 30.5 µM | OVCAR-4 22.7 µM | UACC-257 27 µM | SK-MEL-5 18.7 µM | SK-MEL-28 22.2 µM | HOP-92 19.7 µM | UO-31 26.7 µM | A549 35.7 µM | SF-295 21.6 µM

O=C1C(Cl)N(c2ccc(Cl)cc2)C1c1c[nH]c2ccccc12 (stereo not given)
inactive: UACC-62 14.9 µM | SNB-75 19.1 µM | HCT-116 13.8 µM | SF-539 18.2 µM | SF-268 26.2 µM | SW-620 26 µM | OVCAR-4 39.7 µM | KM-20L2 13.2 µM | UACC-257 16.8 µM | SK-MEL-5 15.5 µM | SK-MEL-28 24.8 µM | HOP-92 22.5 µM | UO-31 11.6 µM | A549 33.7 µM | SF-295 16.4 µM | SN12C 17.7 µM

O=C1CCC[C@]2(CCC[C@@H](O)C2)N1
inactive: SNB-75 > 100 µM | HCT-116 > 100 µM | LOX IMVI > 100 µM | SF-539 > 100 µM | ACHN > 100 µM | SF-268 > 100 µM | OVCAR-4 > 100 µM | UACC-257 > 100 µM | SK-MEL-5 > 100 µM | A549 > 100 µM | SF-295 > 100 µM | SN12C > 100 µM

CCOC(=O)C1=C(C)N(C2OC(COC(C)=O)C(OC(C)=O)C(OC(C)=O)C2OC(C)=O)C(=O)NC1c1ccccc1 (stereo not given)
inactive: UACC-62 > 100 µM | SNB-75 55 µM | HCT-116 > 100 µM | LOX IMVI > 100 µM | SF-539 > 100 µM | ACHN > 100 µM | SF-268 > 100 µM | SW-620 > 100 µM | OVCAR-4 > 100 µM | KM-20L2 > 100 µM | UACC-257 > 100 µM | DLD-1 > 100 µM | SK-MEL-5 > 100 µM | SK-MEL-28 > 100 µM | UO-31 > 100 µM | A549 > 100 µM | SF-295 > 100 µM | SN12C > 100 µM | NCI-H226 > 100 µM

Cc1nn(-c2ccccc2)c(S)c1C(=O)c1ccccc1
inactive: UACC-62 47.1 µM | SNB-75 42.8 µM | LOX IMVI 53.6 µM | SF-539 40.7 µM | ACHN 39.9 µM | SF-268 51.1 µM | SW-620 32.6 µM | OVCAR-4 40.7 µM | KM-20L2 53 µM | UACC-257 76.2 µM | DLD-1 4.85 µM | SK-MEL-5 28.8 µM | SK-MEL-28 33.5 µM | UO-31 36 µM | A549 32.2 µM | SF-295 35.2 µM | SN12C 21.2 µM

CC(=O)c1ccc(Oc2ccc(/C(C)=N\N=C(N)N)cc2)cc1
inactive: UACC-62 2 µM | SNB-75 1.47 µM | HCT-116 3.24 µM | LOX IMVI 3.4 µM | SF-539 1.72 µM | ACHN 4.73 µM | SF-268 3.59 µM | OVCAR-4 10.6 µM | KM-20L2 1.71 µM | UACC-257 5.68 µM | DLD-1 3.56 µM | SK-MEL-5 2.08 µM | SK-MEL-28 4.68 µM | HOP-92 2.96 µM | A549 4.12 µM | SF-295 2.38 µM | SN12C 3.17 µM

COc1cc(C(O)(CC#N)c2cc3c(cc2Br)OCO3)cc(OC)c1OC (stereo not given)
inactive: UACC-62 24.9 µM | SNB-75 65.3 µM | HCT-116 40.6 µM | LOX IMVI 31.3 µM | SF-539 8.05 µM | ACHN 92.7 µM | SF-268 28.2 µM | SW-620 40.3 µM | OVCAR-4 > 100 µM | UACC-257 27.9 µM | SK-MEL-28 23.4 µM | HOP-92 > 100 µM | UO-31 57.5 µM | A549 22.9 µM | SF-295 16.3 µM | SN12C > 100 µM | NCI-H226 30.8 µM

COc1ccc(/C=N/n2cnc3c(c2=O)SC(=C(C#N)C#N)N3c2ccccc2)cc1
inactive: UACC-62 > 100 µM | SNB-75 27.6 µM | HCT-116 > 100 µM | SF-539 36.2 µM | ACHN > 100 µM | SF-268 41.1 µM | SW-620 > 100 µM | UACC-257 > 100 µM | DLD-1 > 100 µM | SK-MEL-5 > 100 µM | SK-MEL-28 90.8 µM | HOP-92 38.8 µM | UO-31 > 100 µM | A549 > 100 µM | SF-295 74.5 µM | NCI-H226 > 100 µM
